Results published in patent publication US20040038367A1, “Novel xyloglucan oligosaccharide-degrading enzyme, polynucleotide encoding the enzyme, and method of preparing the enzyme” (NATIONAL INSTITUTE OF ADVANCED INDUSTRIAL SCIENCE AND …, priority 2002, published 2004).

Molecular target: T1, xyloglucan oligosaccharide-degrading enzyme (Geotrichum sp., UniProt Q8J0D2)
T1 construct: made in house; host or cells: Geotrichum sp. strain M128 (natural producer; enzyme purified, not recombinant)
Experiment: Inhibition of the enzyme activity by metal ions
Type: biochemical, Geotrichum sp. strain M128
Details: concentration of 1 mM or more

Compound: [Hg+2] [mercury ion]
- inhibition of the activity of the enzyme: strongly inhibited
